The target in the assay is T1, human NLRP3 (Homo sapiens, UniProt Q96P20).
T1 construct: Human whole blood is drawn from healthy volunteers after obtaining written informed consent; from tissue; host or cells: human whole blood from healthy volunteers (heparin lithium tubes)
Description: Human whole blood (hWB) NLRP3 assay (IL-1β release after LPS priming and ATP activation). In kind it is cell-based. The following applies: for IC50: human whole blood, read-out: hWB IL-1β IC50; for fold improvement in activity compared to Compound 3 (hWB IL-1β IC50): additional ring N atom versus Compound 3 with lactam ring N as sole N ring atom, Table E. The method, then: Human Whole Blood (hWB) NLRP3 Assay
Human whole blood is drawn from healthy volunteers after obtaining written informed consent. Heparin lithium coated tubes are used to collect blood from volunteers. Blood samples are distributed on 96 well plates using 90 μl per well.
Priming procedure: Priming is performed by adding 5 μl of LPS (026:B6; Sigma L-2654) at a final concentration of 1 μg/ml for 4.5 hours in a humidified incubator with 37° C., 5% CO2. Thirty minutes prior to NLRP3 activation, 5 μl of a 20× compound solution or vehicle (2% dimethylsulfoxide (DMSO)) is added to each well and plates were incubated on a shaker (450 rpm) in a humidified incubator with 37° C., 5% CO2.
Alternative priming procedure: Thirty minutes prior to LPS priming, 5 μl of a 20× compound solution or vehicle (2% dimethylsulfoxide (DMSO)) is added to each well and plates were incubated on a shaker (450 rpm) in a humidified incubator with 37° C., 5% CO2. Priming is performed by adding 5 μl of LPS (026:B6; Sigma L-2654) at a final concentration of 1 μg/ml for 5 hours in a humidified incubator with 37° C., 5% CO2.
Activation is then performed by adding 3.3 μl of a 31×ATP solution per well. At the end of the 30 minutes stimulation, the plates are centrifuged (800 g, 10 min, room temperature) and the plasma from each well is frozen at −80° C. […] levels in the supernatant were analyzed using a mesoscale discovery assay (MSD K151TUK) according to the manufacturers' instructions.
There is no detectable difference in assay IC50 results using the priming procedure versus the alternative priming procedure.
Data provided in Table C, below. hWB […] Assay: A represents an IC50 value <0.3 μM; B represents an IC50 value ≥0.3 μM and <0.5 μM; C represents an IC50 value ≥0.5 μM and <1.0 μM; D represents an IC50 value ≥1.0 μM and <10 μM; E represents an IC50 value ≥10 μM. Dashed (--) lines indicate no data available.

[1] abbreviates: LPS 1 μg/ml priming, ATP activation, Table C, class symbols.
[2] abbreviates: numeric values of Tables D and E.

Structures are written as SMILES. Where two headings read alike, the source gives them in different places.

T1 sequence (Q96P20 whole entry): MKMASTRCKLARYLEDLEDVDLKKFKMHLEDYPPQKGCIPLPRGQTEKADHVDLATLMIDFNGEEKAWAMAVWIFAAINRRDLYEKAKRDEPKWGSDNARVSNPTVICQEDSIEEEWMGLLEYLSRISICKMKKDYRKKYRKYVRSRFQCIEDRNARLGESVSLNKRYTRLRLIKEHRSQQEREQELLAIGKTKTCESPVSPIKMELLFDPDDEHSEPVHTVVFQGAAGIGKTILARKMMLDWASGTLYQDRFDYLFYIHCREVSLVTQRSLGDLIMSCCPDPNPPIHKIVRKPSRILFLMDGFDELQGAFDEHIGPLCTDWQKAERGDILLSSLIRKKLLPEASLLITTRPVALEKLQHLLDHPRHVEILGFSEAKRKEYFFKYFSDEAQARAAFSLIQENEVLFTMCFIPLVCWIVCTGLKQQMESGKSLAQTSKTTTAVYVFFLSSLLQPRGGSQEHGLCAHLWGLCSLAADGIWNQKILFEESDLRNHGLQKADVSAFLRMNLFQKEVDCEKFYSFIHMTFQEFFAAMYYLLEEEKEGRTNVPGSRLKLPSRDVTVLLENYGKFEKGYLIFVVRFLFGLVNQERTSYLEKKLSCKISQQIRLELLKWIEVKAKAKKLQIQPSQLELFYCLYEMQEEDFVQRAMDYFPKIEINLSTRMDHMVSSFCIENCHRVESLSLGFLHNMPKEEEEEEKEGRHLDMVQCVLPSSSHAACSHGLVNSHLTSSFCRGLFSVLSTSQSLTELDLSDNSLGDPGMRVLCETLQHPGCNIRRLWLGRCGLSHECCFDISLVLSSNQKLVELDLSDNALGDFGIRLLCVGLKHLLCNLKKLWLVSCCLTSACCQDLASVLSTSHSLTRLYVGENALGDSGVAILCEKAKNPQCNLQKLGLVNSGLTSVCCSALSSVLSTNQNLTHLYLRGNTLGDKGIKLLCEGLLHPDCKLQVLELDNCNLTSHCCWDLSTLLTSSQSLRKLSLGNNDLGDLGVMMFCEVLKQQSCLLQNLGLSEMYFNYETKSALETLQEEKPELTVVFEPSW

Regarding `CC1(C)C(=O)N(c2cc(C3CC3)cn(CCCC(=O)O)c2=O)c2c(F)cc(C3CC3)c(F)c21` [Compound 14, 4-(5-cyclopropyl-3-(5-cyclopropyl-4,7-difluoro-3,3-dimethyl-2-oxoindolin-1-yl)-2-oxopyridin-1(2H)-yl)butanoic acid], the IC50 under setting [1] was in the range of 1000 to 10000 nM.

Regarding `CC1(C)C(=O)N(c2cc3ccccc3n(CCCC(=O)O)c2=O)c2c(F)cc(C3CC3)c(F)c21` [Compound 9, 4-(3-(5-cyclopropyl-4,7-difluoro-3,3-dimethyl-2-oxoindolin-1-yl)-2-oxoquinolin-1(2H)-yl)butanoic acid], the IC50 under setting [1] fell in the range of 1000 to 10000 nM.

For `CC1(C)C(=O)N(c2cccn(CCCC(=O)O)c2=O)c2c(O)cc(Cl)cc21` [Compound 7, 4-(3-(5-chloro-7-hydroxy-3,3-dimethyl-2-oxoindolin-1-yl)-2-oxopyridin-1(2H)-yl)butanoic acid], the IC50 under setting [1] fell in the range of 1000 to 10000 nM.

On to `Cc1ccc(N2C(=O)C(C)(C)c3c(F)c(C4CC4)cc(F)c32)c(=O)n1CCCC(=O)O` [Compound 6, 4-(3-(5-cyclopropyl-4,7-difluoro-3,3-dimethyl-2-oxoindolin-1-yl)-6-methyl-2-oxopyridin-1(2H)-yl)butanoic acid], for which the IC50 under setting [1] lay in the range of 1000 to 10000 nM.

As for `CC1(C)C(=O)N([C@@H]2CC(C)(C)N(CCCC(=O)O)C2=O)c2c(F)cc(C3CC3)c(F)c21` (single isomer, unassigned) [Compound 25A], the IC50 under setting [1] was at least 10000 nM.

On to `C[C@@H](CCC(=O)O)N1CC[C@@H](N2C(=O)C(C)(C)c3c(F)c(C4CC4)cc(F)c32)C1=O` (single isomer, unassigned) [Compound 24A*], for which, under setting [1], the IC50 fell in the range of 300 to 500 nM.

As to `Cc1cc(N2C(=O)C(C)(C)c3c(F)c(C4CC4)cc(F)c32)c(=O)n(CCCC(=O)O)c1` [Compound 5, 4-(3-(5-cyclopropyl-4,7-difluoro-3,3-dimethyl-2-oxoindolin-1-yl)-5-methyl-2-oxopyridin-1(2H)-yl)butanoic acid], the IC50 under setting [1] was 1000 to 10000 nM.

Consider `CC1(C)C(=O)N([C@@H]2CCN(CCCC(=O)O)C2=O)c2ccc(C3CC3)c(F)c21` (stereo in doubt) [Compound 18A*, (R)-4-(3-(5-cyclopropyl-4-fluoro-3,3-dimethyl-2-oxoindolin-1-yl)-2-oxopyrrolidin-1-yl)butanoic acid], for which the “fold more active than 18B* (hWB IL-1β IC50)” value (R-isomer versus S-isomer 18B*, Table D) was over 147 fold. In addition, the IC50 runs as follows: under setting [1], 1000 to 10000 nM; under setting [2], 3400 nM.

For `CC1(C)C(=O)N(c2cncn(CCCC(=O)O)c2=O)c2c(F)cc(C3CC3)c(F)c21` [Compound 8, 4-(5-(5-cyclopropyl-4,7-difluoro-3,3-dimethyl-2-oxoindolin-1-yl)-6-oxopyrimidin-1(6H)-yl)butanoic acid], the “fold improvement in activity compared to Compound 3 (hWB IL-1β IC50)” value is on record as 3-5 fold. The IC50 under setting [1] is 300 to 500 nM. The IC50 under setting [2] was 470 nM.

As for `CC1(C)C(=O)N([C@H]2CCN(CCCC(=O)O)C2=O)c2c(F)cc(C3CC3)c(F)c21` [Compound 16B, (S)-4-(3-(5-cyclopropyl-4,7-difluoro-3,3-dimethyl-2-oxoindolin-1-yl)-2-oxopyrrolidin-1-yl)butanoic acid], the IC50 under setting [1] is 1000 to 10000 nM.

For `CC1(C)C(=O)N(c2cc(-c3ccccc3)cn(CCCC(=O)O)c2=O)c2c(F)cc(C3CC3)c(F)c21` [Compound 13, 4-(3-(5-cyclopropyl-4,7-difluoro-3,3-dimethyl-2-oxoindolin-1-yl)-2-oxo-5-phenylpyridin-1(2H)-yl)butanoic acid], the IC50 under setting [1] is at least 10000 nM.

Regarding `CC1(C)C(=O)N(c2nccn([C@@H]3CCC[C@H]3CC(=O)O)c2=O)c2c(F)cc(C3CC3)c(F)c21` (single isomer, unassigned) [Compound 20D*], the IC50 under setting [1] fell in the range of 500 to 1000 nM.

Take `CC1(C)C(=O)N([C@H]2CC(C)(C)N(CCCC(=O)O)C2=O)c2c(F)cc(C3CC3)c(F)c21` (single isomer, unassigned) [Compound 25B]: the IC50 under setting [1] is at least 10000 nM.

`C[C@@H](CCC(=O)O)N1CC[C@H](N2C(=O)C(C)(C)c3c(F)c(C4CC4)cc(F)c32)C1=O` (single isomer, unassigned) [Compound 24C*]: the IC50 under setting [1] was at least 10000 nM.

With `CC1(C)C(=O)N([C@@H]2CCN(CCCC(=O)O)C2=O)c2c(F)cc(C3CC3)c(F)c21` [Compound 16A, (R)-4-(3-(5-cyclopropyl-4,7-difluoro-3,3-dimethyl-2-oxoindolin-1-yl)-2-oxopyrrolidin-1-yl)butanoic acid], the IC50 under setting [1] was under 300 nM.

For the compound `CC1(C)C(=O)N(c2cccn(CCCC(=O)O)c2=O)c2c(F)cc(Br)cc21` [Compound 1, 4-(3-(5-bromo-7-fluoro-3,3-dimethyl-2-oxoindolin-1-yl)-2-oxopyridin-1(2H)-yl)butanoic acid], the IC50 under setting [1] lay within 1000 to 10000 nM.

For the compound `CC1(C)C(=O)N(c2cc(C(F)(F)F)cn(CCCC(=O)O)c2=O)c2c(F)cc(C3CC3)c(F)c21` [Compound 12, 4-(3-(5-cyclopropyl-4,7-difluoro-3,3-dimethyl-2-oxoindolin-1-yl)-2-oxo-5-(trifluoromethyl)pyridin-1(2H)-yl)butanoic acid], under setting [1], the IC50 is 1000 to 10000 nM.

On to `CC1(C)C(=O)N(c2nccn([C@H]3CCC[C@@H]3CC(=O)O)c2=O)c2c(F)cc(C3CC3)c(F)c21` (single isomer, unassigned) [Compound 20C*], for which the IC50 under setting [1] is 500 to 1000 nM.

Consider `CC1(C)C(=O)N(c2nccn(CCCC(=O)O)c2=O)c2ccc(C3CC3)c(F)c21` [Compound 21, 4-(3-(5-cyclopropyl-4-fluoro-3,3-dimethyl-2-oxoindolin-1-yl)-2-oxopyrazin-1(2H)-yl)butanoic acid], for which the IC50 under setting [1] is 1000 to 10000 nM.

Take `CC1(C)C(=O)N(c2nccn(CCCC(=O)O)c2=O)c2c(F)cc(C(F)(F)F)c(F)c21` [Compound 17, 4-(3-(4,7-difluoro-3,3-dimethyl-2-oxo-5-(trifluoromethyl)indolin-1-yl)-2-oxopyrazin-1(2H)-yl)butanoic acid]: under setting [1], the IC50 was in the range of 500 to 1000 nM.

Turning to `CC1(C)C(=O)N(c2c(=O)n(CCCC(=O)O)cc3ccccc23)c2c(F)cc(C3CC3)c(F)c21` [Compound 15, 4-(4-(5-cyclopropyl-4,7-difluoro-3,3-dimethyl-2-oxoindolin-1-yl)-3-oxoisoquinolin-2(3H)-yl)butanoic acid], under setting [1], the IC50 is at least 10000 nM.

`C[C@@H](CC(=O)O)CN1CC[C@@H](N2C(=O)C(C)(C)c3c(F)c(C4CC4)cc(F)c32)C1=O` (single isomer, unassigned) [Compound 26A*]: the IC50 under setting [1] was 300 to 500 nM.

`CC1(C)C(=O)N(c2nccn(CCCC(=O)O)c2=O)c2c(F)cc(C3CC3)c(F)c21` [Compound 10, 4-(3-(5-cyclopropyl-4,7-difluoro-3,3-dimethyl-2-oxoindolin-1-yl)-2-oxopyrazin-1(2H)-yl)butanoic acid]: the “fold improvement in activity compared to Compound 3 (hWB IL-1β IC50)” value is 3-5 fold. Further, the IC50 under setting [1] fell in the range of 300 to 500 nM. For the same compound, the IC50 under setting [2] is 390 nM.

For the compound `CC1(C)C(=O)N([C@@H]2CCN(CCCC(=O)O)C2=O)c2c(F)cc(C(F)(F)F)c(F)c21` (stereo in doubt) [Compound 19A*, (R)-4-(3-(4,7-difluoro-3,3-dimethyl-2-oxo-5-(trifluoromethyl)indolin-1-yl)-2-oxopyrrolidin-1-yl)butanoic acid], the IC50 under setting [1] was under 300 nM. Besides, the “hWB NLRP3 inhibitory activity compared to the (S)-isomer” value (isomer comparison, in words) is recorded as “more active isomer”.

With `CC1(C)C(=O)N(c2cccn(CCCC(=O)O)c2=O)c2c(F)cc(C3CC3)cc21` [Compound 2, 4-(3-(5-cyclopropyl-7-fluoro-3,3-dimethyl-2-oxoindolin-1-yl)-2-oxopyridin-1(2H)-yl)butanoic acid], under setting [1], the IC50 was 1000 to 10000 nM.

The values are drawn from US20260285831A1, “LACTAM DERIVATIVES FOR INHIBITING NLRP3 AND USES THEREOF” (Ventus Therapeutics U.S., Inc., priority 2023, published 2026).
